In general, inhibition refers to the percentage by which the read-out fell short of the control. Usually Km stands for the substrate concentration at which the rate is half of its maximum.

Glyceraldehyde-3-phosphate dehydrogenase (Homo sapiens), P04406, sequence (P04406 whole entry): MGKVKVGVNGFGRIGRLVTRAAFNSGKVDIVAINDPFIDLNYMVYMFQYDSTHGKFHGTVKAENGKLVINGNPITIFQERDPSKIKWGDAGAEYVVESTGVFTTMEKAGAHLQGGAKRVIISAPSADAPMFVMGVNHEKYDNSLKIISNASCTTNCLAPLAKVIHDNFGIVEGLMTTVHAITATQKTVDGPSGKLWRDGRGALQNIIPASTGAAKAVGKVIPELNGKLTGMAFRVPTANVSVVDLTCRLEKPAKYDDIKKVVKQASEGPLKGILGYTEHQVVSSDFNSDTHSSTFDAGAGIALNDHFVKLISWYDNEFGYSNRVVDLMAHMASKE

For the first data set, the system named is Leishmania mexicana. In words: Inhibition of Leishmania mexicana GAPDH(glyceraldehyde-3-phosphate dehydrogenase). Set-up: concentration or dose not given beside the values. Particulars: concentration not given here.
Compound `Nc1ncnc2c1nc(N1CCCCC1)n2[C@@H]1O[C@H](CO)[C@@H](O)[C@H]1O` yielded an inhibition of 100%. On to `COc1cccc(C(=O)N[C@@H]2[C@H](O)[C@@H](COC(=O)c3ccccc3C(=O)O)O[C@H]2n2cnc3c(NCc4ccccc4)ncnc32)c1`, for which the inhibition turned out to be 100%.

The compound `O=C(NC[C@H]1OC(n2cnc3c(NCc4ccccc4)ncnc32)[C@H](O)[C@@H]1O)c1cc(O)cc(O)c1` (some centres undefined) came in with an inhibition of 100%. Still for that read-out and setting: the figure for `Nc1ncnc2c1nc(NCCO)n2C1O[C@H](CO)[C@@H](O)[C@H]1O` (some centres undefined) is 80%; for `Nc1ncnc2c1ncn2C1O[C@H](COC(=O)c2ccc3ccccc3c2)[C@@H](O)[C@H]1O` (some centres undefined) it is 100%; for `O=C(Cc1ccccc1)NC[C@H]1OC(n2cnc3c(NCc4ccccc4)ncnc32)[C@H](O)[C@@H]1O` (some centres undefined) it is 77%.

`O=C(CC1CCCCC1)NC[C@H]1OC(n2cnc3c(NCc4ccccc4)ncnc32)[C@H](O)[C@@H]1O` (some centres undefined) yielded an inhibition of 77%.

Consider `O=C(O)CCCC(=O)NC[C@H]1OC(n2cnc3c(NCc4ccccc4)ncnc32)[C@H](O)[C@@H]1O` (some centres undefined), for which the inhibition was 79%.

Take `Nc1ncnc2c1ncn2C1O[C@H](COC(=O)CCC(=O)O)[C@@H](O)[C@H]1O` (some centres undefined): the inhibition amounted to 100%. On the same count and under the same terms, the figure for `Cc1ccccc1CNc1ncnc2c1nc(-c1cccs1)n2C1O[C@H](CO)[C@@H](O)[C@H]1O` (some centres undefined) is 100%.

In turn, `CN(C)c1nc2c(N)ncnc2n1C1O[C@H](CO)[C@@H](O)[C@H]1O` (some centres undefined) yielded an inhibition of 75%. Consider `NC(=O)CCC(=O)NC[C@H]1OC(n2cnc3c(NCc4ccccc4)ncnc32)[C@H](O)[C@@H]1O` (some centres undefined), for which the inhibition stood at 74%. With `CC(C)=CCNc1ncnc2c1ncn2[C@@H]1O[C@H](CO)[C@@H](O)[C@H]1O`, the inhibition was 84%. The same measure, in the same setting: the figure for `Nc1ncnc2c1ncn2[C@@H]1O[C@H](COC(=O)c2ccccc2)[C@@H](O)[C@H]1O` is 67%; for `Nc1ncnc2c1nc(NCc1ccccc1)n2[C@@H]1O[C@H](CO)[C@@H](O)[C@H]1O` it is 100%.

As to `OC[C@H]1OC(n2c(-c3cccs3)nc3c(NCc4ccccc4)ncnc32)[C@H](O)[C@@H]1O` (some centres undefined), the inhibition was 100%. On the same count and under the same terms, the figure for `Nc1ncnc2c1nc(N1CCCC1)n2C1O[C@H](CO)[C@@H](O)[C@H]1O` (some centres undefined) is 100%.

A further data set deals with Leishmania mexicana.
Details: not given
In the case of `CC(C)=CCNc1ncnc2c1nc(-c1cccs1)n2C1O[C@H](CO)[C@@H](O)[C@H]1O` (some centres undefined), the Km amounted to 400 µM.

A further data set deals with CC(C)=CCNc1ncnc2c1nc(-c1cccs1)n2C1O[C@H](CO)[C@@H](O)[C@H]1O.
Details: not given
As to “Glyceraldehyde-3-phosphate dehydrogenase (Homo sapiens), P04406”, the Km amounted to 40 µM.

(Values after ChEMBL document CHEMBL1130706, “Synthesis and structure-activity relationships of adenosine analogs as inhibitors of trypanosomal glyceraldehyde-3-phosphate dehydrogenase. Modifications at positions 5' and 8” (Bioorg Med Chem Lett, 1998).)
